According to paper PMC11126973, “Targeting the Plasmodium falciparum UCHL3 ubiquitin hydrolase using chemically constrained peptides” (Proceedings of the National Academy of Sciences of the …, 2024):
Values joined by “and” are separate entries in the source; they are usually repeats but may differ in a detail not shown here. Identical values can stand only once. Bridge positions count the residues as written; N and C are the ends. Square brackets hold non-standard residues; d marks the D form. Peptide text beside a SMILES is read from it.

Experiments:
[1] = biological target: T1, PfUCHL3 (Plasmodium falciparum, UniProt Q8IKM8); experiment: biochemical; format: binding; parameters: His tag (TEV-cleavable) (cleaved yes); made in house; conditions: for Kd: BLI, 25 °C
T1 sequence (Q8IKM8 1-232): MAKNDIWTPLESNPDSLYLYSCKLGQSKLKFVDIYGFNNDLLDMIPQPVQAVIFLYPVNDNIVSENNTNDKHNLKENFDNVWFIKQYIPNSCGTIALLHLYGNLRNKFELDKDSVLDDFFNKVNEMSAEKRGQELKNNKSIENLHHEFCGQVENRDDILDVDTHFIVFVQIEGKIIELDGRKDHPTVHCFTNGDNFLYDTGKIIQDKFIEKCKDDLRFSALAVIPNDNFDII
Procedure: BLI experiments were performed using a ForteBio Octet Red96 instrument at 25 °C. Measurements were performed in black 96-well plates with a well volume of 200 μL. Biotinylated Avi-tagged PfUCHL3 was prepared in a buffer containing 50 mM Tris-HCl buffer, 200 mM NaCl, 0.5 mM TCEP, pH 7.5, and loaded at 1 μg/mL for 60 s. Peptides were diluted to a 4 μM stock concentration in the same DMSO:water mix in which they were resuspended from their stock powder (approximately 4%). The final dilutions (to 400 nM, 133.3 nM, and 44.4 nM) were performed in the same buffer as for the PfUCHL3. Streptavidin-coated tips were used with a new tip for each measurement, because regeneration with PfUCHL3 attached to the tip was not possible. The association and dissociation times were 300 s. All data analysis was performed with the instrument software.

[2] = biological target: T1, PfUCHL3; experiment: biochemical; parameters: His tag (TEV-cleavable) (cleaved yes); made in house
Procedure: (§1) DUB assays were performed in triplicate in 384-well plates (Corning) using a CLARIOstar plus plate reader. PfUCHL3, HsUCHL3, or peptide were diluted in reaction buffer (50 mM Tris-HCl buffer, pH 7.5, 150 mM NaCl, 1 mg/mL BSA, 0.1% DMSO, and 1 mM TCEP) to 4× the desired final peptide/protein concentration (to keep DMSO concentration constant in all reactions). Protein and peptide (or 0.1% DMSO (mock)) were mixed 1:1 and incubated for 10 min at room temperature, with each enzyme complex at 2× the desired final concentration. Enzyme:peptide mixture (10 μL) and Ub-AMC (7-amino-4-methylcoumarin, Boston Biochem) (250 nM, 10 μL) were mixed in a 384-well plate. DUB activity was measured by monitoring the increase in AMC fluorescence. The kinetic trace at each concentration of peptide was corrected for background and then the initial rate of reaction was determined. The rate of reaction was plotted against the concentration of peptide to determine the IC50 using the following equation: Y=Vmax^*X/IC50+X,
(§2) where Vmax is the reaction rate in the absence of inhibitor, X is the concentration of the peptide inhibitor, and IC50 is the peptide concentration when the rate was inhibited by the peptide by 50%. The data were fitted using Prism (Graphpad).

[3] = biological target: T1, PfUCHL3; experiment: Thermal shift assay (TSA) of PfUCHL3 with peptides; format: binding; parameters: His tag (TEV-cleavable) (cleaved yes); made in house; host or cells: bacterial cells (purified 'as described above', C41); conditions: peptide 48 pM to 25 μM, PfUCHL3 5 μM
Procedure: Thermal shift assays were performed using a Bio-Rad CFX Connect qPCR instrument, whereby the unfolding is detected by fluorescence of the hydrophobic dye Sypro Orange that binds to the unfolded state of the protein. The experiments were performed in clear-bottom, half-volume, 96-well plates using final well volumes of 25 μL, PfUCHL3 concentration of 5 μM, peptide concentrations ranging from 47 pM to 25 μM, and Sypro Orange:protein concentration ratio of 1:400. PfUCHL3, Sypro orange, and peptide were diluted to 5x concentration in buffer, 1:2,000 concentration in buffer, and 4% DMSO, respectively, before being mixed in the well to a final 1x concentration in buffer. For the PfUCHL3-only control, the peptide was replaced with 4% DMSO and for the buffer control, the PfUCHL3 was replaced with buffer in the sample mix. The samples were incubated at 20 °C for 2 min before increasing by 0.5 °C every 30 s up to 90 °C. At each temperature, the fluorescence intensity was measured using an excitation wavelength of 471 nm and an emission wavelength of 570 nm. Data analysis was performed using the GraphPad Prism software.

[4] = system: T2, HsUCHL3; experiment: Ub-AMC deubiquitination (DUB) assay, HsUCHL3; format: biochemical, human; conditions: peptide 25 μM, HsUCHL3 31.25 pM
T2 construct: His tag (TEV-cleavable) (cleaved yes); made in house; host or cells: bacterial cells (purified 'as described above')
Procedure: as §1, §2

How did the koff [1] turn out when `CC[C@H](C)[C@@H]1NC(=O)[C@H](Cc2ccc(O)cc2)NC(=O)[C@H](CCCNC(=N)N)NC(=O)[C@H](CCC(N)=O)NC(=O)[C@H](Cc2ccc(O)cc2)NC(=O)[C@H](CC(=O)O)NC(=O)[C@@H](Cc2c[nH]c3ccccc23)NC(=O)CSC[C@@H](C(=O)O)NC(=O)[C@H](Cc2c[nH]c3ccccc23)NC(=O)[C@H](CS)NC(=O)[C@H]([C@@H](C)O)NC(=O)[C@H]([C@@H](C)O)NC(=O)[C@H](CC(C)C)NC(=O)[C@H](CCCNC(=N)N)NC(=O)[C@H](Cc2ccccc2)NC(=O)[C@H](CCCCN)NC1=O` [Peptide 58474] ({CH2CO}-[dW]DYQRYIKFRLTTCWC-OH; thioether N-16) was run?
The koff was 0.00174 ± 9e-05 s⁻¹.

And the kon [1]?
Its kon is 17100 ± 900 M⁻¹ s⁻¹.

What about the Kd ([1]; 1:1 (1-site) model) of the same compound?
Its Kd is 101 ± 7 nM.

`CC(C)[C@@H]1NC(=O)[C@H](Cc2ccc(O)cc2)NC(=O)[C@H](Cc2c[nH]cn2)NC(=O)[C@H](Cc2c[nH]c3ccccc23)NC(=O)[C@@H]2CCCN2C(=O)[C@H](Cc2c[nH]c3ccccc23)NC(=O)[C@H](Cc2ccccc2)NC(=O)[C@H]([C@@H](C)O)NC(=O)[C@H]([C@@H](C)O)NC(=O)[C@@H](Cc2c[nH]c3ccccc23)NC(=O)CSC[C@@H](C(=O)O)NC(=O)[C@H](CCC(N)=O)NC1=O` [Peptide 60297] ({CH2CO}-[dW]TTFWPWHYVQC-OH; thioether N-12) was tested. Which IC50 [2] did it give?
Its IC50 is 1440 ± 371 nM.

What about the Kd ([1]; complex profile fitted to heterogeneous model, the tighter of the two Kd values) of the same compound?
The Kd was 2 nM and ~2 nM.

`CC[C@H](C)[C@@H]1NC(=O)[C@H](Cc2c[nH]c3ccccc23)NC(=O)[C@H](CC(C)C)NC(=O)[C@H](CCCNC(=N)N)NC(=O)[C@@H](Cc2c[nH]c3ccccc23)NC(=O)CSC[C@@H](C(=O)O)NC(=O)[C@H](CC(=O)O)NC(=O)[C@H](Cc2ccc(O)cc2)NC(=O)[C@H](CCCNC(=N)N)NC(=O)[C@H](CC(N)=O)NC(=O)[C@H](Cc2ccc(O)cc2)NC(=O)[C@H](CCCNC(=N)N)NC(=O)[C@H](CCCNC(=N)N)NC(=O)[C@H](CCC(=O)O)NC(=O)[C@H](CO)NC(=O)[C@H](CC(C)C)NC1=O` [Peptide 60296] ({CH2CO}-[dW]RLWILSERRYNRYDC-OH; thioether N-16) was tested. Which “dose dependence of PfUCHL3 melting temperature” value [3] did it give?
Its value is “increase in a dose-dependent manner”.

What about the “inhibitory effect on the human UCHL3 enzyme” value [4] of the same compound?
Its value is “Neither 60296 nor 60297 peptides showed any inhibitory effect”.

What about the koff [1] of the same compound?
Its koff is 0.0053 ± 6e-05 s⁻¹.

And the kon [1]?
Its kon is 569000 ± 16000 M⁻¹ s⁻¹.
